# Laboratory results as given in article doi:10.1101/2025.07.09.663793, “Activating and inhibiting nucleotide signals coordinate bacterial anti-phage defense” (bioRxiv, 2025).
# What was measured:
# CloA (SeCloA) [1] = biological target: T1, CloA (SeCloA) (Salmonella enterica, UniProt A0A5H6DAK1, H126A/E129A); assay: […] Å cryo-EM structure of CloA–dGTP–dTTP; format: binding
# T1 construct: gene dgt; CloA^HEAA, octamer
# CloA (SeCloA) [2] = biological target: T2, CloA (SeCloA); assay: activation of purified CloA dGTPase, phosphate release and LC-MS; format: biochemical, Salmonella enterica
# T2 construct: wild-type CloA
# CloA (SeCloA) [3] = biological target: T2, CloA (SeCloA); assay: inhibition of purified CloA dGTPase, phosphate release (malachite green); format: biochemical, Salmonella enterica
# CloA (SeCloA) [4] = biological target: T3, CloA (SeCloA); assay: […] Å cryo-EM of CloA co-expressed with CloB; LC-MS of released ligand; dGTPase inhibition (malachite green); format: biochemical, Salmonella enterica
# T3 construct: full-length CloA from S. enterica SA20044414, octamer
# [5] = biological target: Salmonella enterica SA20044414 Clover protein A (CloA), wild type (Salmonella enterica SA20044414); assay: cryo-EM structure; apo Salmonella CloA, 1 mg/mL, vitrified at 4°C; C4 symmetry
# [6] = biological target: Shewanella putrefaciens CN-32 dGTPase (Shewanella putrefaciens CN-32); assay: crystal structure; SpdGTPase at 10 mg/mL in 20 mM HEPES-KOH pH 7.5, 100 mM KCl; hanging drop, 18°C; reservoir 0.2 M magnesium chloride, 0.1 M HEPES-NaOH pH 7.5, 30% PEG-400
molecule,measurement,setting,value
Cc1cn([C@H]2C[C@H](O)[C@@H](COP(=O)(O)OP(=O)(O)OP(=O)(O)O)O2)c(=O)[nH]c1=O [dTTP],2.6 Å cryo-EM structure of CloA-dGTP-dTTP,CloA (SeCloA) [1],"In the CloA–dGTP–dTTP active state structure, dTTP is bound at the CloAAB interface in an adjacent pocket"
same,EC50,CloA (SeCloA) [2],~15 µM
Cc1cn([C@H]2C[C@H](OP(=O)(O)OC[C@H]3O[C@@H](n4cc(C)c(=O)[nH]c4=O)C[C@@H]3O)[C@@H](COP(=O)(O)OP(=O)(O)O)O2)c(=O)[nH]c1=O [p2diT],IC50,CloA (SeCloA) [3],~20.9 µM
"Cc1cn([C@H]2C[C@H](OP(=O)(O)OC[C@H]3O[C@@H](n4cc(C)c(=O)[nH]c4=O)C[C@@H]3O)[C@@H](COP(=O)(O)OP(=O)(O)OP(=O)(O)O)O2)c(=O)[nH]c1=O [p3diT, 5′-triphosphothymidyl-3′5′-thymidine]",IC50,CloA (SeCloA) [4],~7.6 µM
"Salmonella enterica SA20044414 Clover protein A (CloA), wild type (enzyme)",stoichiometry N,[5],8
Shewanella putrefaciens CN-32 dGTPase (enzyme),stoichiometry N,[6],6
